According to ChEMBL document CHEMBL5331086, “Natural product evodiamine-inspired medicinal chemistry: Anticancer activity, structural optimization and structure-activity relationship” (Eur J Med Chem, 2023):
In brackets after ≈: the same amount, converted by molar mass. One block for each compound: values may come before it.

Key:
MDA-MB-435 [1] = assay: Antiproliferative activity against human MDA-MB-435 cells; type: functional, cell-based
A549 [2] = assay: Antiproliferative activity against human A549 cells assessed as reduction in cell viability incubated for 48 hrs by MTT assay; type: functional, cell-based; settings: A549, 48 h
HCT-116 [3] = assay: Antiproliferative activity against human HCT-116 cells assessed as reduction in cell viability incubated for 48 hrs by MTT assay; type: functional, cell-based; settings: HCT-116, 48 h
HCCLM9 = assay: Antiproliferative activity against human HCCLM9 cells assessed as reduction in cell growth incubated for 48 hrs by CCK-8 assay; type: functional, cell-based; settings: HCCLM9, 48 h
Huh-7 = assay: Antiproliferative activity against human Huh-7 cells assessed as reduction in cell viability incubated for 48 hrs by CCK-8 assay; type: functional, cell-based; settings: Huh-7, 48 h
HepG2 [4] = assay: Antiproliferative activity against human HepG2 cells assessed as reduction in cell viability incubated for 48 hrs by CCK-8 assay; type: functional, cell-based; settings: HepG2, 48 h
A549 [5] = assay: Antiproliferative activity against human A549 cells; type: functional, cell-based
HCT-116 [6] = assay: Antiproliferative activity against human HCT-116 cells; type: functional, cell-based
MCF7 [7] = assay: Antiproliferative activity against human MCF7 cells; type: functional, cell-based
[8] = Antiproliferative activity against human HUVEC cells; type: toxicity, cell-based
MCF7 [9] = assay: Antiproliferative activity against human MCF7 cells assessed as reduction in cell viability incubated for 48 hrs by MTT assay; type: functional, cell-based; settings: MCF7, 48 h
HGC-27 = assay: Antiproliferative activity against human HGC-27 cells assessed as reduction in cell viability measured after 48 hrs by MTT assay; type: functional, cell-based; settings: HGC-27, 48 h
HCT-116 [10] = assay: Cytotoxicity against human HCT-116 cells assessed as reduction in cell viability incubated for 72 hrs by MTT assay; type: functional, cell-based; settings: HCT-116, 72 h
A549 [11] = assay: Cytotoxicity against human A549 cells assessed as reduction in cell viability measured after 72 hrs by MTT assay; type: functional, cell-based; settings: A549, 72 h
MDA-MB-435 [12] = assay: Cytotoxicity against human MDA-MB-435 cells assessed as reduction in cell viability incubated for 72 hrs by MTT assay; type: functional, cell-based; settings: MDA-MB-435, 72 h
DU-145 = assay: Cytotoxicity against human DU-145 cells assessed as cell growth inhibition measured after 48 hrs by MTT assay; type: functional, cell-based; settings: DU-145, 48 h
NCI-H460 = assay: Cytotoxicity against human NCI-H460 cells assessed as reduction in cell viability incubated for 48 hrs by MTT assay; type: functional, cell-based; settings: NCI-H460, 48 h
MCF7 [13] = assay: Cytotoxicity against human MCF7 cells assessed as reduction in cell viability incubated for 48 hrs by MTT assay; type: functional, cell-based; settings: MCF7, 48 h
HCT-15 = assay: Cytotoxicity against human HCT-15 cells assessed as reduction in cell viability incubated for 48 hrs by MTT assay; type: functional, cell-based; settings: HCT-15, 48 h
SF-268 = assay: Cytotoxicity against human SF-268 cells assessed as reduction in cell viability incubated for 48 hrs by MTT assay; type: functional, cell-based; settings: SF-268, 48 h
[14] = Solubility of compound in water incubated for 24 hrs by HPLC-UV analysis; type: physicochemical
Histone deacetylase 1 = Histone deacetylase 1 (Homo sapiens, UniProt Q13547); assay: Inhibition of HDAC1 (unknown origin)
Histone deacetylase 2 = Histone deacetylase 2 (Homo sapiens, UniProt Q92769); assay: Inhibition of HDAC2 (unknown origin)
HCT-116 [15] = assay: Antiproliferative activity against human HCT-116 cells assessed as reduction in cell viability incubated for 48 hrs by CCK-8 assay; type: functional, cell-based; settings: HCT-116, 48 h
MDA-MB-231 = assay: Antiproliferative activity against human MDA-MB-231 cells assessed as reduction in cell viability incubated for 48 hrs by CCK-8 assay; type: functional, cell-based; settings: MDA-MB-231, 48 h
SW-620 = assay: Cytotoxicity against human SW-620 cells assessed as reduction in cell viability incubated for 48 hrs by CCK-8 assay; type: functional, cell-based; settings: SW-620, 48 h
MCF7 [16] = assay: Antiproliferative activity against human MCF7 cells assessed as reduction in cell viability incubated for 24 hrs by MTT assay; type: functional, cell-based; settings: MCF7, 24 h
HepG2 [17] = assay: Antiproliferative activity against human HepG2 cells assessed as reduction in cell viability incubated for 24 hrs by MTT assay; type: functional, cell-based; settings: HepG2, 24 h
A549 [18] = assay: Cytotoxicity against human A549 cells assessed as reduction in cell viability incubated for 72 hrs by MTT assay; type: functional, cell-based; settings: A549, 72 h
PC-9 = assay: Cytotoxicity against human PC-9 cells assessed as reduction in cell viability incubated for 72 hrs by MTT assay; type: functional, cell-based; settings: PC-9, 72 h
MCF7 [19] = assay: Cytotoxicity against human MCF7 cells assessed as reduction in cell viability measured after 72 hrs by MTT assay; type: functional, cell-based; settings: MCF7, 72 h
PC-3 = assay: Cytotoxicity against human PC-3 cells assessed as reduction in cell viability measured after 72 hrs by MTT assay; type: functional, cell-based; settings: PC-3, 72 h
MDA-MB-435 [20] = assay: Cytotoxicity against human MDA-MB-435 cells assessed as reduction in cell viability measured after 24 hrs by MTT assay; type: functional, cell-based; settings: MDA-MB-435, 24 h
A549 [21] = assay: Cytotoxicity against human A549 cells assessed as reduction in cell viability measured after 24 hrs by MTT assay; type: functional, cell-based; settings: A549, 24 h
HCT-116 [22] = assay: Cytotoxicity against human HCT-116 cells assessed as reduction in cell viability measured after 24 hrs by MTT assay; type: functional, cell-based; settings: HCT-116, 24 h
[23] = Solubility of compound in water; type: physicochemical

Sequence of Histone deacetylase 1 (Q13547 whole entry): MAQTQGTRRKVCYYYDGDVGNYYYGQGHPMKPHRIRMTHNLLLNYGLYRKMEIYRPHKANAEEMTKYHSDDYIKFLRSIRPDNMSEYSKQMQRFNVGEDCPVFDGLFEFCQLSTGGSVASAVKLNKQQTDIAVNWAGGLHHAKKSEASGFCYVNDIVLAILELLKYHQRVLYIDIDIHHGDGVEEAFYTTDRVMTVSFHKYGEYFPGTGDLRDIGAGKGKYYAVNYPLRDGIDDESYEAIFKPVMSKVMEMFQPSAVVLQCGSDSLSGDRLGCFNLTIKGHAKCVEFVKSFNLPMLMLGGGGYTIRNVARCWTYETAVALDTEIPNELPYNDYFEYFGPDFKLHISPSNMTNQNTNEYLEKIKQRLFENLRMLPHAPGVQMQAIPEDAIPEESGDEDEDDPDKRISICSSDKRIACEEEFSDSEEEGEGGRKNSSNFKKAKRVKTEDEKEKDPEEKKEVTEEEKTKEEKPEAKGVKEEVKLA
Sequence of Histone deacetylase 2 (Q92769 whole entry): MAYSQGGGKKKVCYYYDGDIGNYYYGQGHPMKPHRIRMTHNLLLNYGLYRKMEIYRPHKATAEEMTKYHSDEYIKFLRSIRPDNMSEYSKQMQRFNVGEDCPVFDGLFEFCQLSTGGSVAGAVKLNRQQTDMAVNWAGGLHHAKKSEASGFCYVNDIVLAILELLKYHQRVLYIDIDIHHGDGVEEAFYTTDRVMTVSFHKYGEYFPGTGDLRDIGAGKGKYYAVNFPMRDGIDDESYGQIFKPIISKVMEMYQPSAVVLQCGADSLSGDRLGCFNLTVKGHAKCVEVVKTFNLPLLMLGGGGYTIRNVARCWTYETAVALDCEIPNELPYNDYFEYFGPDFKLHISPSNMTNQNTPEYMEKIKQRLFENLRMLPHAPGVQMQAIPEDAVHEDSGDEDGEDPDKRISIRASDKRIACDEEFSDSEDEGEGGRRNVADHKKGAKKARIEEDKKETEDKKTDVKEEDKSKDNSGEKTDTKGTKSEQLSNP

Compound: CN1c2ccccc2C(=O)N2CCc3c([nH]c4c([N+](=O)[O-])cc([N+](=O)[O-])cc34)C21 (configuration not stated)
- IC50 (MDA-MB-435 [1]): > 200000 nM
- IC50 (A549 [2]): > 200000 nM
- IC50 (HCT-116 [3]): < 200000 nM

Compound: CN1c2ccccc2C(=O)N2CCc3c([nH]c4ccc(OC(=O)CCCC(=O)Oc5ccc6[nH]c7c(c6c5)CCN5C(=O)c6ccccc6N(C)C75)cc34)C21 (configuration not stated)
- IC50 (A549 [5]): 730 nM
- IC50 (HCT-116 [6]): 32 nM
- IC50 (MCF7 [7]): 200 nM
- IC50 [8]: 580 nM

Compound: CN1c2ccccc2C(=O)N2CCc3c([nH]c4ccc(OC(=O)CCC(=O)Oc5ccc6[nH]c7c(c6c5)CCN5C(=O)c6ccccc6N(C)C75)cc34)C21 (configuration not stated)
- IC50 (A549 [5]): 680 nM
- IC50 (HCT-116 [6]): 32 nM
- IC50 (MCF7 [7]): 890 nM
- IC50 [8]: 210 nM

Compound: CN1c2ccc(NC(=O)CBr)cc2C(=O)N2CCc3c([nH]c4ccccc34)C21 (configuration not stated)
- IC50 (HCT-116 [10]): 28000 nM
- IC50 (A549 [11]): 154000 nM
- IC50 (MDA-MB-435 [12]): 22700 nM

Compound: COCCCCn1c2c(c3ccccc31)CCN1C(=O)c3ccccc3N(C)C21 (configuration not stated)
- IC50 (DU-145): < 2000 nM
- IC50 (NCI-H460): < 2000 nM
- IC50 (MCF7 [13]): < 2000 nM
- IC50 (HCT-15): < 2000 nM
- IC50 (SF-268): < 2000 nM

Compound: CN1c2ccc(NCC3CCN(c4ncc(C(=O)NO)cn4)CC3)cc2C(=O)N2CCc3c([nH]c4ccc(O)cc34)C21 (configuration not stated)
- IC50 (HCT-116 [6]): 230 nM
- IC50 (Histone deacetylase 1): 4 nM
- IC50 (Histone deacetylase 2): 5 nM

Compound: CN1c2ccccc2C(=O)N2[C@H](C(=O)Nc3ccc(C(=O)Nc4ccccc4N)cc3)Cc3c([nH]c4ccccc34)[C@@H]12
- IC50 (HCT-116 [15]): 1600 nM

Compound: Cc1cc2c(s1)N(C)C1c3[nH]c4ccccc4c3CCN1C2=O (configuration not stated)
- IC50 (A549 [18]): 10400 nM
- IC50 (PC-9): 9460 nM
- IC50 (MCF7 [19]): 9020 nM
- IC50 (PC-3): 7770 nM

Compound: CN1c2ccc(NCc3ccc(/C=C/C(=O)NO)cc3)cc2C(=O)N2CCc3c([nH]c4ccc(O)cc34)C21 (configuration not stated)
- IC50 (HCT-116 [6]): 180 nM
- IC50 (Histone deacetylase 1): 18 nM
- IC50 (Histone deacetylase 2): 230 nM

Compound: CN1c2ccccc2C(=O)N2CCc3c(n(C(=O)c4ccc(Cl)cc4)c4ccc(O)cc34)C21 (configuration not stated)
- IC50 (MDA-MB-435 [20]): < 2 nM
- IC50 (A549 [21]): 26600 nM
- IC50 (HCT-116 [22]): 50 nM

Compound: COc1ccc2c(c1)c1c(n2C(=O)c2cc(OC)c(OC)c(OC)c2)C2Oc3ccccc3C(=O)N2CC1 (configuration not stated)
- IC50 (HGC-27): 6100 nM

Compound: CN1c2ccc(-c3ccnc(N4CCNCC4)c3)cc2C(=O)N2CCc3c([nH]c4ccccc34)C21 (configuration not stated)
- IC50 (HCT-116 [10]): 5940 nM
- IC50 (A549 [11]): 6800 nM
- IC50 (MDA-MB-435 [12]): 2780 nM

Continued, in another order:

- IC50 (HCCLM9): 240 nM
- IC50 (Huh-7): 440 nM
- IC50 (HepG2 [4]): 920 nM
Compound: Cc1ccc2[nH]c3c(c2c1)CCN1C(=O)c2ccccc2N(c2ccccc2)C31 (configuration not stated)

- IC50 (MCF7 [9]): 520 nM
Compound: CC(N)C(=O)Nc1ccc2[nH]c3c(c2c1)CCN1C(=O)c2ccccc2N(C)C31 (configuration not stated)

- IC50 (HCCLM9): 1630 nM
- IC50 (Huh-7): 780 nM
- IC50 (HepG2 [4]): 21500 nM
Compound: CN1c2ccccc2C(=O)N2CCc3c([nH]c4ccccc34)C21 (configuration not stated)
- IC50 (HGC-27): 2280 nM

- IC50 (MCF7 [9]): 190 nM
Compound: CN1c2ccccc2C(=O)N2CCc3c([nH]c4ccc(NS(C)(=O)=O)cc34)C21 (configuration not stated)

- IC50 (HCCLM9): 9820 nM
- IC50 (Huh-7): 740 nM
- IC50 (HepG2 [4]): 2390 nM
Compound: O=C1c2ccccc2N(c2ccccc2)C2c3[nH]c4ccccc4c3CCN12 (configuration not stated)

- IC50 (MCF7 [9]): 1800 nM
- solubility at 24 h [14]: 10 µg/mL (≈ 31.4 µM)
Compound: CN1c2ccccc2C(=O)N2CCc3c([nH]c4ccc(N)cc34)C21 (configuration not stated)

- IC50 (MDA-MB-435 [1]): < 3 nM
- IC50 (A549 [2]): 2550 nM
- IC50 (HCT-116 [3]): < 3 nM
Compound: CN1c2ccccc2C(=O)N2CCc3c([nH]c4c(Cl)cccc34)C21 (configuration not stated)

- IC50 (MDA-MB-231): 790 nM
Compound: CN1c2cc(N)ccc2C(=O)N2CCc3c([nH]c4ccccc34)C21 (configuration not stated)
- IC50 (SW-620): 1280 nM

- IC50 (MCF7 [16]): 2680 nM
- IC50 (HepG2 [17]): 18400 nM
Compound: CN1c2ccccc2C(=O)N2CCc3c(n(S(=O)(=O)c4ccc([N+](=O)[O-])cc4)c4ccccc34)C21 (configuration not stated)

- IC50 (A549 [5]): < 3 nM
- IC50 (MDA-MB-435 [1]): < 3 nM
- IC50 (HCT-116 [6]): < 3 nM
- solubility [23]: 11 µg/mL (≈ 34.4 µM)
Compound: CN1c2ccccc2C(=O)N2CCc3c([nH]c4ccc(O)cc34)C21 (configuration not stated)
